Data as given in patent US20250282714A1, “COMPOSITIONS FOR AND METHODS OF MODULATING RNA STABILITY” (Duke University, priority 2022, published 2025).
Several values for one entry are separate records, joined by “and”; a condition that tells them apart may be missing. Equal entries are not always repeated. Entries after “also recorded” stand apart in the source; their conditions may differ.

Columns and labels:
MALAT1 triple helix [1] = test: Differential scanning fluorimetry (DSF), thermal stability; assay type: binding, human; settings: for effect on MALAT1 triplex thermal stability (in words): DSF
Description: Differential scanning fluorimetry experiments were performed as previously reported. (Donlic A, et al. (2020) Nucleic Acids Res. 48(14):7653-7664). All experiments were performed in white 96 well plates in a LightCycler® 96 (Roche). In a typical experiment, 4 μM of RNA was annealed in the same buffer used for indicator displacement assays (20 mM HEPES-KOH, 52.6 mM KCl, 0.1 mM MgCl2, pH=7.4) by heating at 95° C. for 3 minutes, snap-cooling on ice for 10 minutes, and leaving the solution at room temperature for 1 hr. Then, 42 μL of this solution was aliquoted to wells and 5 μM of ligand was added (2.5 μL of water, 2.0 μL of DMSO, 0.5 μL of 500 μM small molecule stock). The mixture was left to incubate at room temperature for 5 minutes, after which 3 μL of a 20 μM Quant-iT™ RiboGreen™ (ThermoFisher Scientific) dye stock solution in appropriate buffer was added to each well. The 96 well plate was then sealed with an optically clear foil and centrifuged for 1 minute at 4000 rpm prior to being placed in the instrument. The light cycler program was created by selecting the melting curve method; fluorescence intensity was monitored using the SYBR Green I/HRM dye filter combination (465-510 nm) from 37-98° C. at a ramp rate of 0.01° C./second with 150 acquisitions per° C. Melting profiles were obtained by Tm analysis in the LightCycler® 96 software (SW 1.1).
The MALAT1 triple helix is known to confer stability to the full-length transcript and protect it from RNase-mediated degradation, ultimately resulting in transcript accumulation and aggregation in nuclear speckles. (Brown J A, (2020) WIREs RNA. 11(6):e1598; Wilusz J E, et al. (2012) Genes Dev. 26(21):2392-2407; Brown J A, et al. (2014) Nat Struct Mol Biol. 21(7):633-640; Tycowski K T, et al. (2016) Cell Rep. 15(6):1266-1276). To better understand how the diminazene focused library affects the MALAT1 triplex stability, the entire library was evaluated via differential scanning fluorimetry (DSF) (FIG. 5A). This method allows for rapid assessment of small molecule effects on nucleic acid thermal stability (Silvers R, et al. (2015) Chembiochem. 16(7):1109-1114) in a 96-well plate format, substantially reducing the time and cost associated with traditional UV-melting experiments.
The bi-phasic melting profile distinctive of triple helices is attributed to an initial melting of the Hoogsteen triple base pairs followed by dissociation of Watson-Crick-Franklin base pairs (FIG. 16A-FIG. 16E). (Pilch D S, et al. (1995) Biochemistry. 34(49):16107-16124). At an equimolar ratio of RNA:small molecule, a range of thermal stabilization of the first (Tm1) was observed, but not the second (Tm2) melting peak (FIG. 5A, FIG. 13A-FIG. 13Z). At increasing small molecule concentration, a dose-dependent increase in ΔTm1 but not in ΔTm2 was observed, indicating small molecule interactions in the triplex region and not in the upper stem region (FIG. 15).

MALAT1 triple helix [2] = test: RiboGreen indicator displacement assay (IDA); assay type: binding, human; settings: for affinity for the MALAT1 triple helix (in words): RiboGreen IDA
Description: The protocol was adapted from a previously reported procedure. (Donlic A, et al. (2020) Nucleic Acids Res. 48(14):7653-7664). A serial dilution of the MALAT1 triple helix RNA was performed in HEPES buffer (20 mM HEPES-KOH, 52.6 mM KCl, 0.1 mM MgCl2, pH=7.4) in a 96 well plate in triplicate. […] of each dilution were transferred to a 384 well plate followed by […] of a 500 nM solution of RiboGreen dye in the same buffer (Invitrogen™). The plates were excited at 487 nm (8 nm slit) and emission was recorded at 530 nm (8 nm slit, focal height 11.3 mm) using a CLARIOstar plate reader (BMG labtech). The affinity of the dye for the RNA construct was determined by fitting the raw fluorescence in GraphPad Prism version 8.3.1 for Macintosh (GraphPad Software, La Jolla California USA, (www.graphpad.com)) by fitting to the Log[Agonist] vs. response—variable slope model that using Equation (1) below.
where Y is normalized % change in fluorescence intensity, X is RNA concentration, Bottom is lowest fluorescence % change and Top is highest fluorescence % change. Affinity of the dye for the RNA construct was used as the ideal RNA concentration (174 nM) for small molecule titrations.
A serial dilution of small molecule (0, 0.5 μM, 1.0 μM, 2.5 μM, 5 μM, 7.5 μM, 10.0 μM, 12.5 μM, 25 μM, 50 µM, 75 μM, 100 μM, 125 μM, 150 μM, 250 μM, 500 µM) was performed in HEPES buffer (20 mM HEPES-KOH, 52.6 mM KCl, 0.1 mM MgCl2, pH=7.4) in a 96 well plate in triplicate. Then, 8 μL of each dilution were transferred to a 384 well plate, followed by 8 μL of a 174 nM solution of MALAT1 RNA and […] of RiboGreen™ (Invitrogen™). The RNA was previously annealed by heating to 95° C. for 5 minutes and cooling to 0° C. on ice for 30 minutes. The 384 well plates were shaken for 5 minutes, centrifuged at 4000 rpm for 1 minute, and incubated in the dark for 20 minutes. The plates were excited at 487 nm (8 nm slit) and emission was read at 525 nm (8 nm slit, focal height […]) using a CLARIOstar plate reader (BMG Labtech). Percent fluorescence indicator displacement (% FID) was calculated by subtracting and, subsequently, dividing by the blank wells with RNA-dye complex and no small molecule as shown in Equation (2).
Where Fo is the fluorescence of the blank well with RNA+dye and no small molecule and F is the fluorescence of the well with all three components (RNA+dye+small molecule).
Each technical triplicate was averaged, and the resulting FID values were averaged between three independent experiments. The binding curve and Log (CD50) value was obtained by using a non-linear fit curve (Log[Agonist] vs. response) with variable slope at four parameters (GraphPad Prism Software version for Macintosh 8.3.1, La Jolla, California, USA (www.graphpadprism.com)) as shown in Equation 1. Reported values are averages of three independent experiments=standard deviation.
Given the structural differences between secondary and tertiary structures, where more continuous and complex base-pairing occurs, the design and optimization of an RNA triple helix IDA amenable to HTS was the first focused on. The utility of RiboGreen™ dye was confirmed as an indicator. The RiboGreen™ structure is proprietary, and stoichiometry is thus unconfirmed. Upon assay optimization, the 21-member library was screened using a 16-point titration in three independent replicates (FIG. 2A, FIG. 12A-FIG. 12U).

MALAT1 triple helix [3] = test: RNase A enzymatic degradation assay; assay type: biochemical, human; settings: for stabilizing / destabilizing compound (as listed 'in an aspect'): stabilizing = less, destabilizing = more degradation in an enzymatic assay than control
Description: The procedure was adapted from a published protocol for exonucleolytic enzymatic degradation assay. (Donlic A, et al. (2020) Nucleic Acids Res. 48(14):7653-7664). The MALAT1 destabilizing small molecules published by Le Grice (Abulwerdi F A, et al. (2019) ACS Chem Biol. 14(2):223-235) and co-workers SM5 and SM16 were purchased from ChemBridge. For a typical 70 μL reaction, […] of MALAT1 triple helix RNA was annealed in the same buffer used for IDA and DSF experiments (20 mM HEPES-KOH, 52 mM KCl, 0.1 mM MgCl2, pH=7.4) by heating at 95° C. for 3 minutes, snap-cooling on ice for 10 minutes, and leaving the solution at room temperature for 1 hr.
RNase A enzyme (ThermoFisher) was diluted to 1.46 nM and incubated with 1 M NaCl for 30-35 minutes to achieve ssRNA selectivity as reported. (Struhl K, et al. (1989) Current Protocols in Molecular Biology. 8(1):3.13.1-3.13.3). Next, the RNA was mixed with 0.2 μM of a GC-rich DNA duplex, […] of small molecule/DMSO and incubated at room temperature for 20 minutes. Following the incubation, […] of RNase A was added, and the reaction was incubated at 37° C. for 1 hour in a thermal cycler with a heated lid (Eppendorf). 4 μL timepoint aliquots were taken at 0, 5, 10, 30, and 60 minutes, 4 μL of 2×RNA loading dye was added to each aliquot (ThermoFischer Scientific), and samples were stored at −80° C. prior to gel analysis. Reactions were analyzed on pre-cast 15% PAGE-Urea gels (Invitrogen) in 1×TBE buffer. Aliquots were thawed from −80° C. storage and heated to 95° C. for 15 minutes prior to gel loading and […] were loaded in each well. Gels were run for 45 minutes at 180 V, stained with Diamond™ Nucleic Acid dye (Promega), and visualized on an iBright 500 (ThermoFisher). DMSO controls were ran with every set of 4 small molecules to ensure consistency of enzyme activity and RNA integrity. Gel band intensity of the MALAT1 triple helix and DNA loading control were quantified using ImageJ software. (Rueden C T, et al. (2017) BMC Bioinformatics. 18(1):529).
To quantify time-dependent endonucleolytic degradation for each sample, the intensity was normalized using Equation (3), and fold-difference was calculated as listed in Equation (4) as previously reported. (Donlic A, et al. (2020) Nucleic Acids Res. 48(14):7653-7664).
where y is normalized RNA area for a specific time point and the sample (tx), TH (triple helix). Area is the raw band intensity for the RNA in the lane corresponding to time point x for that sample, LC (loading control). Area (t0) is the raw band intensity for the DNA in the lane corresponding to the 0 minute time point for the sample, and LC Area (tx) is the raw band intensity for the DNA in the lane corresponding to time point x for that sample.
where y is fold-difference of the exonucleolytic degradation for the specific sample, with normalized areas for its specific time point x and time point 0 calculated as described in Equation (3). Percent RNA degraded was calculated for every time point using Equation (5).
% RNA degraded=(Normalized area (t0)−Normalized area (tx))*100 (Equation 5)
Experimental results shown in FIG. 6C are plotted as three independent replicates and standard deviation between replicates as error bars. Relative fold change between treated condition and DMSO was calculated from Equation (6).
The library was screened using a more biologically relevant in vitro enzymatic degradation assay. Previous work evaluated the effect on triplex degradation of various ionic buffer conditions (Ageeli A A, et al. (2018) Nucleic Acids Res. 47(3):1468-1481) and a sub-set of DPF small molecules (Donlic A, et al. (2020) Nucleic Acids Res. 48(14):7653-7664) using E. coli RNase R exonuclease as it degrades from 3′ to 5′, reporting on the availability of the poly(A) tail normally sequestered in the triplex construct. […]

[4] = 5-minute time point, relative to DMSO control

In the case of `N=C(NCCc1cccnc1)c1cccc(/N=N/Nc2cccc(C(=N)NCCc3cccnc3)c2)c1` [DMZ-M3], the “effect on MALAT1 triplex thermal stability (in words)” value (“effect … (in words)” for short) (MALAT1 triple helix [1]) is reported as “negligible thermal stabilization” and the “affinity for the MALAT1 triple helix (in words)” value (shortened to “affinity … (in words)”) (MALAT1 triple helix [2]) is reported as “moderate affinity”.
For `N=C(NCc1ccccc1)c1cccc(/N=N/Nc2cccc(C(=N)NCc3ccccc3)c2)c1` [DMZ-M4], the “effect … (in words)” value (MALAT1 triple helix [1]) was “increases in thermal stability; also recorded: mediocre”, the “affinity … (in words)” value (MALAT1 triple helix [2]) was “mediocre affinity” and the “increase of the amount of MALAT1 degraded at 5 minutes” value (MALAT1 triple helix [3]; [4]) was 2 fold and > 2 fold. For the same compound, the “stabilizer / destabilizer classification by RNase A degradation” value (“stabilizer / destabilizer classification” for short) (MALAT1 triple helix [3]; [4]) was “destabilizers”.
For `N=C(NCc1ccco1)c1cccc(/N=N/Nc2cccc(C(=N)NCc3ccco3)c2)c1` [DMZ-M15], the “effect … (in words)” value (MALAT1 triple helix [1]) was “negligible thermal stabilization” and the “affinity … (in words)” value (MALAT1 triple helix [2]) was “moderate affinity”.
With `CN(C)c1ccc(CN2CCC(CCNC(=N)c3ccc(/N=N/N(C)c4ccc(C(=N)NCCC5CCN(Cc6ccc(N(C)C)cc6)CC5)cc4)cc3)CC2)cc1` [DMZ-NMe-P38] the “stabilizing / destabilizing compound (as listed 'in an aspect')” value (shortened to “stabilizing / destabilizing compound”) (MALAT1 triple helix [3]) was “destabilizing”.
`CN(/N=N/c1ccc(C(=N)NCCC2CCN(Cc3ccccc3)CC2)nc1)c1ccc(C(=N)NCCC2CCN(CC3C=CC=CC3)CC2)nc1` (stereo not shown) [DMZ-NMe-mPy-P1] was tested, and the “stabilizing / destabilizing compound” value (MALAT1 triple helix [3]) was “destabilizing”.
In the case of `N=C(NCc1ccccc1)c1ccccc1/N=N/Nc1ccccc1C(=N)NCc1ccccc1` [DMZ-O4], the “affinity … (in words)” value (MALAT1 triple helix [2]) is reported as “no affinity”.
For `N=C(NCc1ccc(Cl)cc1)c1ccccc1/N=N/Nc1ccccc1C(=N)NCc1ccc(Cl)cc1` [DMZ-O5], the “stabilizer / destabilizer classification” value (MALAT1 triple helix [3]; [4]) was “much stronger destabilizing effect” and the “stabilizing / destabilizing compound” value (MALAT1 triple helix [3]) was “stabilizing; also recorded: destabilizing”.
`N=C(N)c1ccc(/N=N/Nc2ccc(C(=N)N)cc2)cc1` [DMZ-P0, diminazene, reference compound] was tested, and the “effect … (in words)” value (MALAT1 triple helix [1]) was “increases in thermal stability” and the “stabilizer / destabilizer classification” value (MALAT1 triple helix [3]; [4]) was “destabilizers”.
In the case of `CN(C)CCCNC(=N)c1ccc(/N=N/Nc2ccc(C(=N)NCCCN(C)C)cc2)cc1` [DMZ-P1], the “effect … (in words)” value (MALAT1 triple helix [1]) is reported as “increases in thermal stability”, the “effect on Tm1 (ΔTm1, first melting peak)” value (MALAT1 triple helix [1]; equimolar RNA:small molecule, versus DMSO vehicle) is reported as “approximately 6.1 °C” and the “stabilizer / destabilizer classification” value (MALAT1 triple helix [3]; [4]) is reported as “destabilizers”. The “strength class of stabilizer / destabilizer (change in degradation)” value (MALAT1 triple helix [3]; [4]) was “weak destabilizer (weak destabilizer (<50% increase in degradation))”.
In the case of `N=C(NCc1ccc(Cl)cc1)c1ccc(/N=N/Nc2ccc(C(=N)NCc3ccc(Cl)cc3)cc2)cc1` [DMZ-P5], the “fold higher affinity, para scaffold versus ortho scaffold” value (MALAT1 triple helix [2]; subunit R-5: DMZ-P5 versus DMZ-O5) is reported as 13 fold.
In the case of `CCCCNC(=N)c1ccc(/N=N/Nc2ccc(C(=N)NCCCC)cc2)cc1` [DMZ-P17], the “effect … (in words)” value (MALAT1 triple helix [1]) is reported as “negligible thermal stabilization” and the “affinity … (in words)” value (MALAT1 triple helix [2]) is reported as “moderate affinity”.
